# Source: patent publication US7312360B2, “Substituted hydroxyethylamines” (Elan Pharmaceuticals, Inc., priority 2001, dated 2007)
row,melting point,Compound
1,102 to 105 °C,"CCCCCCOc1cccc(C[C@H](NC(C)=O)[C@H](O)CNCc2cccc(CC)c2)c1 [Example 93B, N-{(1S,2R)-3-[(3-ethylbenzyl)amino]-1-[3-(hexyloxy)benzyl]-2-hydroxypropyl}acetamide]"
2,117 to 120 °C,"CCCCCCOc1cccc(C[C@H](NC(=O)c2cccc(-c3ncco3)c2)[C@H](O)CNCc2cccc(CC)c2)c1 [Example 93A, N-{(1S,2R)-3-[(3-ethylbenzyl)amino]-1-[3-(hexyloxy)benzyl]-2-hydroxypropyl}-3-(1,3-oxazol-2-yl)benzamide]"
3,85 to 90 °C,"CCCCCCOc1cccc(C[C@H](NC(=O)c2coc(NS(C)(=O)=O)n2)[C@H](O)CNCc2cccc(CC)c2)c1 [Example 45, N-{(1S,2R)-3-[(3-ethylbenzyl)amino]-1-[3-(hexyloxy)benzyl]-2-hydroxypropyl}-2-[(methylsulfonyl)amino]-1,3-oxazole-4-carboxamide]"
4,197 to 199 °C,CCCCOc1cccc(C[C@H](N)[C@H](O)CNCc2cccc(CC)c2)c1.Cl.Cl

row,Compound,melting point
1,"CCCCOc1cccc(C[C@H](NC(=O)c2coc(NS(C)(=O)=O)n2)[C@H](O)CNCc2cccc(CC)c2)c1 [Example 50a, N-{(1S,2R)-1-(3-butoxybenzyl)-3-[(3-ethylbenzyl)amino]-2-hydroxypropyl}-2-[(methylsulfonyl)amino]-1,3-oxazole-4-carboxamide]",78 to 80 °C
2,"CCCCOc1cccc(C[C@H](NC(C)=O)[C@H](O)CNCc2cccc(CC)c2)c1 [Example 50b, N-{(1S,2R)-1-(3-butoxybenzyl)-3-[(3-ethylbenzyl)amino]-2-hydroxypropyl}acetamide]",112 to 114 °C
